Data set [1] deals with Na^+ dependent high-affinity choline uptake (HACU) of AF64A-treated rat hippocampus. As to the kind of experiment: Na+ dependent high-affinity choline uptake (HACU) in crude synaptosomal fraction of AF64A-treated rat hippocampus. The format is biochemical. The note with it: for Improved ratio (% based on Control): HACU, AF64A-treated rat hippocampus synaptosomal fraction, [3H]choline 1 μM, 37° C. How it is done: Effects on Na^+ dependent high-affinity choline uptake (HACU) of AF64A-treated rat hippocampus
According to the method of Fischer et al. [J. Pharm. Exper. Ther., Vol. 222, p. 140 (1982)], AF64A was prepared from AF64. AF64A (1.5 nmole/1.5 μl/side) was injected into rat's both ventricles. After one week, subjecting decapitation, only hippocampus was taken out. It was homogenized with 0.32M of sucrose, centrifuged for 10 minutes at 1000 g, and the supernatant was further centrifuged for 20 minutes at 20,000 g to give crude synaptosomal fraction. The crude synaptosomal fraction and medicament were subjected to incubation at 37° C. for 30 minutes, and after addition of [^3 H]choline (1 μM), they were further subjected to incubation at 37° C. for 10 minutes.
As a control, the crude synaptosomal fraction was subjected to incubation at 37° C. for 30 minutes, and after addition of choline [^3 H]choline (1 μM), it was further subjected to incubation at 37° C. for 10 minutes to use. The reaction was stopped by subjecting filtration on Whatman GF/B filter. Radioactivity on the filter was measured by a liquid scintillation counter and it was made as the HACU amount. An amount of protein was determined according to the method of Bradford. [Analytical Biochemistry, Vol. 72, p. 248 (1976)].

The nature of data set [2]: Acute toxicity test, oral, mouse. The settings on record: in vivo. How it is done: The compound of the present invention was orally administered to a mouse and acute toxicity value was measured.
Data set [3] relates to human Alzheimer's disease. The settings on record: in combination with use of lecithin; Summers, N. Engl. J. Med. 315, 1241 (1986); cited from earlier work.

Molecules are shown by their SMILES. Counter-ions that a name gives are not always drawn.

As to `Cc1ccc2nc3c(c(NC(=O)CN4CCCC4=O)c2c1)CCCC3` [Example 15], the “Improved ratio (% based on Control)” value in data set [1] (10^-5 M) was -2%; in data set [1] (10^-6 M), 28%; in data set [1] (10^-7 M), -5%; in data set [1] (10^-8 M) it was 3%.
As to `CNCC(=O)Nc1c2c(nc3ccccc13)CCCC2` [Example 39, 9-[(2-methylamino)acetyl-amino]-1,2,3,4-tetrahydroacridine], the “Improved ratio (% based on Control)” value in data set [1] (10^-4 M) is -11%; in data set [1] (10^-5 M), 24%; in data set [1] (10^-6 M) it was 16%; in data set [1] (10^-7 M) it was 8%; in data set [1] (10^-8 M), 5%.
In the same order, the values of `CN1CCc2nc3ccccc3c(NC(=O)CN3CCCC3=O)c2C1` [Example 20] are 28%, 9%, 23%, 21% and 10%.
In the case of `CCCC(=O)Nc1c2c(nc3ccccc13)CCCC2` [Example 1, N-(1,2,3,4-tetrahydroacridin-9-yl)butanamide], the “Improved ratio (% based on Control)” value in data set [1] (10^-4 M) stood at 15%; in data set [1] (10^-5 M), 31%; in data set [1] (10^-6 M) it was 28%; in data set [1] (10^-7 M), 13%; in data set [1] (10^-8 M), 20%. In data set [2], the LD50 (commonly the dose expected to kill half of the subjects tested) was 1000 mg/kg.
Take `Nc1c2c(nc3ccccc13)CCCC2` [9-Amino-1,2,3,4-tetrahydroacridine, reference compound]: the “Improved ratio (% based on Control)” value in data set [1] (10^-4 M) is -73%; in data set [1] (10^-5 M), -11%; in data set [1] (10^-6 M) it was 8%; in data set [1] (10^-7 M), 5%; in data set [1] (10^-8 M) it was 2%. In data set [1] (AF64A injected in cerebral ventricles), the “high affinity-choline uptake in hippocampus synaptosome of AF64A-injected rat (activation, in words)” value was “could not be found out”. In data set [2], this compound showed an LD50 of 67 mg/kg. For the same compound, the “effectiveness in human Alzheimer's disease” value in data set [3] is on record as “effective to human Alzheimer's disease”.
On to `O=C(Cn1ccnc1)Nc1c2c(nc3ccccc13)CCCC2` [Example 41], for which the “Improved ratio (% based on Control)” value in data set [1] (10^-4 M) is recorded as 20%; in data set [1] (10^-5 M), 46%; in data set [1] (10^-6 M) it was 18%; in data set [1] (10^-7 M) it was 5%; in data set [1] (10^-8 M), 5%.
With `O=C(CN1CCCC1=O)Nc1c2c(nc3sccc13)CCCC2` [Example 27], the “Improved ratio (% based on Control)” value in data set [1] (10^-4 M) is reported as 9%; in data set [1] (10^-5 M), 41%; in data set [1] (10^-6 M) it was 25%; in data set [1] (10^-7 M) it was 19%; in data set [1] (10^-8 M), 5%.
Taken in the same sequence, the figures for `CCOC(=O)CNCC(=O)Nc1c2c(nc3ccccc13)CCCC2` [Example 40] were 3%, 20%, 14%, 18% and 8%.
Regarding `O=C1CN(CC(=O)Nc2c3c(nc4ccccc24)CCCC3)C(=O)CN1` [Example 37], the “Improved ratio (% based on Control)” value is on record as 39% in data set [1] (10^-4 M); 34% in data set [1] (10^-5 M); 27% in data set [1] (10^-6 M); 9% in data set [1] (10^-7 M); 14% in data set [1] (10^-8 M). Also, in data set [2], the LD50 was 2100 mg/kg.
As to `O=C(CN1CCCC1=O)Nc1c2c(nc3ccccc13)CCCC2` [Example 14, 2-(2-oxopyrrolidin-1-yl)-N-(1,2,3,4-tetrahydroacidin-9-yl)acetamide hydrochloride], the “Improved ratio (% based on Control)” value in data set [1] (10^-4 M) turned out to be 21%; in data set [1] (10^-5 M), 17%; in data set [1] (10^-6 M), 16%; in data set [1] (10^-7 M), 19%; in data set [1] (10^-8 M), 12%. The same compound displayed an LD50 in data set [2] of 2300 mg/kg.
In the case of `CCCC(=O)Nc1c2c(nc3ccccc13)CCC(O)C2` (stereo not drawn) [Example 53, N-(1,2,3,4-tetrahydroacridin-2-ol-9-yl)butanamide], the “Improved ratio (% based on Control)” value in data set [1] (10^-4 M) was 14%; in data set [1] (10^-5 M), 15%; in data set [1] (10^-6 M), 23%; in data set [1] (10^-7 M), 18%; in data set [1] (10^-8 M), 14%.
With `CC(=O)N(C)CC(=O)Nc1c2c(nc3ccccc13)CCCC2` [Example 42], the “Improved ratio (% based on Control)” value in data set [1] (10^-4 M) was 11%; in data set [1] (10^-5 M), 29%; in data set [1] (10^-6 M) it was 30%; in data set [1] (10^-7 M), 14%; in data set [1] (10^-8 M) it was 11%.
In the case of `CC(C)C(=O)Nc1c2c(nc3ccccc13)CCCC2` [Example 3], the “Improved ratio (% based on Control)” value is reported as 21% in data set [1] (10^-4 M); 19% in data set [1] (10^-5 M); 11% in data set [1] (10^-6 M); 16% in data set [1] (10^-7 M); 13% in data set [1] (10^-8 M).
In the same order, the values of `O=C(CN1C(=O)CCC1=O)Nc1c2c(nc3ccccc13)CCCC2` [Example 35] are 26%, 27%, 15%, 26% and 2%.
Taken in the same sequence, the figures for `O=C(CN1CCCC1=O)Nc1c2c(nc3ccccc13)CCN(Cc1ccccc1)C2` [Example 21] were 18%, 32%, 19%, 11% and 10%.
For `CNC(=O)N1CCc2nc3ccccc3c(NC(=O)CN3CCCC3=O)c2C1` [Example 50], the “Improved ratio (% based on Control)” value stood at 27% in data set [1] (10^-5 M), 35% in data set [1] (10^-6 M), 20% in data set [1] (10^-7 M) and 4% in data set [1] (10^-8 M).
`CCCCC(=O)Nc1c2c(nc3ccccc13)CCCC2` [Example 4]: the “Improved ratio (% based on Control)” value is listed as 5% in data set [1] (10^-4 M); 29% in data set [1] (10^-5 M); 3% in data set [1] (10^-6 M); 5% in data set [1] (10^-7 M); 4% in data set [1] (10^-8 M).
For `O=C(CN1CCCC1=O)Nc1c2c(nc3ccccc13)C1CCN2CC1` [Example 22], the “Improved ratio (% based on Control)” value turned out to be 4% in data set [1] (10^-4 M); 30% in data set [1] (10^-5 M); 10% in data set [1] (10^-6 M); 16% in data set [1] (10^-7 M); 13% in data set [1] (10^-8 M).
Take `NC(=O)NCC(=O)Nc1c2c(nc3ccccc13)CCCC2` [Example 46]: the “Improved ratio (% based on Control)” value in data set [1] (10^-4 M) is recorded as 27%; in data set [1] (10^-5 M) it was 13%; in data set [1] (10^-6 M), 28%; in data set [1] (10^-7 M), 11%; in data set [1] (10^-8 M), -8%.

The values above are taken from patent publication US4985430A, “9-acylamino-tetrahydroacridine derivatives and memory enhancing agent containing said derivative as active ingredient” (priority 1987, dated 1991).
